The supplement of paper PMC6470124

Experiments:
[1] = absolute recovery over vacuum-assisted evaporative concentration; higher = better recovery; settings: enrichment method: VEC
Method in brief: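 Samples of influent (6 mL), effluent (15 mL) and surface or nanopure water (60 mL) were spiked with standards before or after concentration, or left unspiked, at 200 ng/L (nanopure/surface) or 1000 ng/L (wastewater), adjusted by class and compound. Concentration was by evaporation at 55 °C and 20 mbar to about 0.3 mL, followed by adjustment to 0.4 mL and centrifugation. Internal standards were then added for LC-HRMS/MS analysis. Absolute recovery was (response ratio pre − unspiked)/(post − unspiked) × 100, using averages of ≥ 2 replicates.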

[2] = LC retention time (Atlantis T3, 5-95% MeOH gradient, 0.1% formic acid); higher = more retained / less polar
Method in brief: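 Retention times refer to reference standards measured by liquid chromatography with high-resolution tandem mass spectrometry. Separation was on an Atlantis T3 C18 column (3 × 150 mm, 3 μm) at 0.3 mL/min with a 5 to 95% methanol gradient over 17.5 min, both solvents carrying 0.1% formic acid. Positive and negative electrospray were run separately on a QExactive Plus, and TraceFinder peak integration (5 ppm tolerance, at least three points per peak) was reviewed by hand.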

[3] = absolute recovery over mixed-bed multilayer solid-phase extraction; higher = better recovery; settings: enrichment method: SPE
Method in brief: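 Elution from a three-layer mixed-bed cartridge used basic followed by acidic ethyl acetate/methanol, after loading either 1000 mL of unfiltered nanopure water or 100–250 mL of wastewater that had been set to pH 6.5 and glass-fibre filtered. Standards went in before or after extraction, or were left out, at 200 ng/L (water) or 1000 ng/L (wastewater), with class exceptions. Internal standards were added afterwards, and measurement was by liquid chromatography with high-resolution tandem mass spectrometry in both ionisation modes. For absolute recovery, background-corrected response ratios of pre-spiked samples were compared with those of post-spiked samples and averaged over at least two replicates.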

Row | absolute recovery ([1]; wastewater effluent) | absolute recovery ([1]; wastewater influent) | LC retention time [2] | absolute recovery ([3]; nanopure water) | absolute recovery ([3]; surface water) | absolute recovery ([3]; wastewater effluent) | absolute recovery ([3]; wastewater influent) | Compound
1 | 86.4% | 102% | 21.8 min | 59.4% | 111% | 88.5% | 61.3% | CSc1nc2cc(Oc3cccc(Cl)c3Cl)c(Cl)cc2[nH]1 [Triclabendazol]
2 | 21.6% | 64.3% | 15.9 min | 64.2% | 81.9% | 80.1% | 64.2% | COC(=O)C1C2CC3c4[nH]c5cc(OC)ccc5c4CC[NH+]3CC2CC(OC(=O)c2cc(OC)c(OC)c(OC)c2)C1OC (stereo not given) [Reserpin]
3 | 83.6% | 72.2% | 7.61 min | 82.7% | 63.7% | 69.7% | 69.5% | CC(C)C([NH3+])C(=O)OCC(CO)OCn1cnc2c(=O)[nH+]c(N)[nH]c21 (stereo not given) [Valganciclovir]
4 | 100% | 105% | 16.9 min | 89.7% | 98.5% | 91% | 85.1% | CCC1OC(=O)C(C)C(OC2CC(C)(OC)C(O)C(C)O2)C(C)C(OC2OC(C)CC([NH+](C)C)C2O)C(C)(OC)CC(C)C(=O)C(C)C(O)C1(C)O (stereo not given) [Clarithromycin]
5 | 90.5% | 94.2% | 15.1 min | 89% | 95.6% | 91.9% | 144% | COc1ccc(C2Sc3ccccc3N(CC[NH+](C)C)C(=O)C2OC(C)=O)cc1 (stereo not given) [Diltiazem]
6 | 95.6% | 96.5% | 6.11 min | 47.7% | – | – | 37.9% | C=CC1=C(C(=O)[O-])N2C(=O)C([NH3+])C2SC1 (stereo not given) [7-Amino-3-vinyl-3-cephem-4-carboxylic-acid]
7 | 106% | 100% | 12.1 min | 80% | 79.7% | 76% | 83.4% | C[NH2+]CC(c1ccc(O)cc1)C1(O)CCCCC1 (stereo not given) [N-O-Didesvenlafaxin]
8 | 96.7% | 86.3% | 18.6 min | 95.9% | 42.8% | 90.2% | 84.9% | O=C([O-])C(F)(F)C(F)(F)C(F)(F)F [PFBA]
9 | 93% | 89.9% | 17.9 min | 99.2% | 103% | 99.5% | 93.3% | O=c1c(-c2ccc(O)cc2)coc2cc([O-])cc(O)c12 [Genistein]
10 | 111% | 103% | 22.4 min | 56.8% | 67.2% | 70.9% | – | CCCCCC(C)OC(=O)COc1ccc(Cl)c2cccnc12 (stereo not given) [Cloquintocet-mexyl]
11 | 98.7% | 102% | 13.3 min | 90.1% | 98.4% | 93.3% | 82% | Cc1nc2n(c(=O)c1CC[NH+]1CCC(c3noc4cc(F)ccc34)CC1)CCCC2 [Risperidone]
12 | 94.9% | 99.4% | 19 min | 97.2% | 91.8% | 93.9% | 96.2% | CCC(C)OC(=O)N1CCCCC1CCO (stereo not given) [Picaridin (=Icaridin)]
13 | 85.7% | 89.8% | 12.8 min | 80.1% | 89.2% | 91.8% | 103% | COc1ccc2c(c1OC)C(=O)OC2C1c2c(cc3c(c2OC)OCO3)CC[NH+]1C (stereo not given) [Noscapin]
14 | 59.2% | 96.9% | 9.5 min | – | 12.2% | 17.8% | 30.7% | CC1(C)SC(CNC(=O)C([NH3+])c2ccc(O)cc2)[NH2+]C1C(=O)[O-] (stereo not given) [Amoxicillin-EP-Impurity-E]
15 | 90.5% | 92.4% | 22 min | 63.9% | 98% | 75.8% | 73.4% | Cc1cccc(N(C)C(=S)Oc2ccc3ccccc3c2)c1 [Tolnaftat]
16 | 101% | 97.7% | 18 min | 96.4% | 92.6% | 93.5% | 99.1% | COC=C(C(=O)[O-])c1ccccc1Oc1cc(Oc2ccccc2C#N)ncn1 [Azoxystrobin-acid]
17 | 114% | 114% | 13.9 min | 94.8% | 93.2% | 93.2% | 90.8% | CC(=O)N(C)N(C(=O)C(=O)N(C)C)c1ccccc1 [AMDOPH]
18 | 103% | 110% | 16.9 min | 85.4% | 110% | 93.4% | 58.3% | CCCCCCCCCC[N+](C)(C)[O-] [NN-Dimethyldicylamin-N-oxid]
19 | 101% | 107% | 14.7 min | 69.9% | 77.5% | 77.3% | 80.4% | CCOC(=O)C1=CC(OC(CC)CC)C(NC(C)=O)C([NH3+])C1 (stereo not given) [Oseltamivir]

Row | absolute recovery ([1]; wastewater effluent) | absolute recovery ([1]; wastewater influent) | LC retention time [2] | absolute recovery ([3]; nanopure water) | absolute recovery ([3]; surface water) | absolute recovery ([3]; wastewater effluent) | absolute recovery ([3]; wastewater influent) | Compound
20 | 92.4% | 130% | 4.55 min | 71.9% | 61.7% | 54.6% | 52.7% | CC1(C)CC(O)CC(C)(C)[NH+]1CCO [4-Hydroxy-1-(2-hydroxyethyl)-2-2-6-6-tetramethylpiperidine]
21 | 117% | – | 22.2 min | 60.5% | 85.9% | 76.6% | 32.2% | O=C([O-])C[N-]S(=O)(=O)C(F)(F)C(F)(F)C(F)(F)C(F)(F)C(F)(F)C(F)(F)C(F)(F)C(F)(F)F [FOSAA]
22 | 102% | 98.3% | 8.81 min | 68.2% | 73.1% | 66.4% | 56.8% | CC(=O)N(CC(O)CO)c1c(I)c(C(=O)NCC(O)CO)c(I)c(C(=O)NCC(O)CO)c1I (stereo not given) [Iohexol]
23 | 118% | – | 3.25 min | 88.2% | – | – | – | CN(C)C(=[NH2+])NC(N)=[NH2+] [Metformin]
24 | 116% | 61.4% | 20.3 min | 87.6% | 100% | 95.5% | 95.1% | COC(=O)NC(C(=O)NC(Cc1ccccc1)C(O)CN(Cc1ccc(-c2ccccn2)cc1)NC(=O)C(NC(=O)OC)C(C)(C)C)C(C)(C)C (stereo not given) [Atazanavir]
25 | 108% | 103% | 17.1 min | 95.6% | 97.5% | 92.4% | 87.4% | Cc1cccc(C)c1N(Cn1cccn1)C(=O)C(=O)[O-] [Metazachlor-OXA]
26 | 103% | 105% | 15.6 min | – | 94.3% | 92.3% | 96% | Cc1cccc(Nc2ccncc2S(=O)(=O)[N-]C(=O)NC(C)C)c1 [Torasemid]
27 | 102% | – | 11.6 min | 101% | 105% | 95.6% | – | O=C1[N-]S(=O)(=O)c2ccccc21 [Saccharin]
28 | 100% | 114% | 14.9 min | 83.4% | 83.5% | 89.2% | 78% | CC12CC3CC(C)(C1)CC([NH3+])(C3)C2 [Memantine]
29 | 110% | 108% | 16.1 min | 84.5% | 106% | 96.3% | 58.1% | C[NH+](C)CCC=C1c2ccccc2CCc2ccccc21 [Amitriptyline E]
30 | 103% | 92.2% | 8.99 min | 50.9% | 69.4% | 63.7% | 73.7% | CNC(=C[N+](=O)[O-])NCCSCc1ccc(C[N+](C)(C)[O-])o1 [Ranitidin-N-oxid]
31 | – | 108% | 13.4 min | 95% | – | – | – | OCC1OC(OC2(CCl)OC(CCl)C(O)C2O)C(O)C(O)C1Cl (stereo not given) [Sucralose]
32 | 59.5% | 70.2% | 19.3 min | 78.6% | 70.5% | 75.3% | 91.5% | CC=CC(=O)N(CC)c1ccccc1C [Crotamiton]
33 | 98.8% | 102% | 19.8 min | 103% | – | 96.1% | 99.4% | O=C([O-])c1cccc(Oc2ccccc2)c1 [3-Phenoxybenzoic-acid]
34 | 97.3% | 99.1% | 13.2 min | 69.1% | 68.7% | 67.6% | 80.7% | Cc1cccc(C)c1OCC(C)[NH3+] (stereo not given) [Mexiletine]
35 | 105% | 124% | 20.5 min | 102% | 104% | 92.4% | 134% | O=C1Nc2ccc(Cl)cc2C(C#CC2CC2)(C(F)(F)F)O1 (stereo not given) [Efavirenz]
36 | 105% | 105% | 11.2 min | 99.2% | 95.3% | 93.2% | 93.4% | CC[N+]1([O-])CCCC1CNC(=O)c1cc(S(=O)(=O)CC)c(N)cc1OC (stereo not given) [Amisulpride-N-Oxide]
37 | 105% | 94% | 11.6 min | 91.4% | 100% | 90.8% | 84.5% | O=C(NCCN1CCOCC1)c1ccc(Cl)cc1 [Moclobemid]
38 | 107% | 102% | 6.6 min | 4.8% | 0.3% | 0.9% | 1.7% | CCCS(=O)(=O)[O-] [1-Propanesulfonate]

Row | Compound | absolute recovery ([1]; wastewater effluent) | absolute recovery ([1]; wastewater influent) | LC retention time [2] | absolute recovery ([3]; nanopure water) | absolute recovery ([3]; surface water) | absolute recovery ([3]; wastewater effluent) | absolute recovery ([3]; wastewater influent)
39 | COCc1cnc(C2=NC(C)(C(C)C)C(=O)N2)c(C(=O)[O-])c1 (stereo not given) [Imazamox] | 104% | 94.7% | 15.1 min | 92.3% | 93.4% | 90.7% | 90.4%
40 | CCNC(=O)NC(=O)C(C#N)=NOC [Cymoxanil] | 53.4% | 69.8% | 15.2 min | 98.4% | 83.5% | 87.9% | 115%
41 | CS(=O)(=O)c1ccc(C(=O)[C-]2C(=O)CCCC2=O)c(Cl)c1COCC(F)(F)F [Tembotrione] | 104% | 116% | 18.9 min | 91.7% | 89.4% | 90.9% | 91.3%
42 | FC(F)(F)c1cccc(N2CC[NH2+]CC2)c1 [1-(3-Trifluoromethylphenyl)-piperazine] | 97.4% | 93% | 13.6 min | 66% | 71.9% | 66.4% | 69.9%
43 | CNC(=O)ON=CC(C)(C)SC [Aldicarb] | 99.1% | 91.7% | 16 min | 88.2% | – | – | –
44 | Fc1ccc(Oc2ccnc3cc(Cl)cc(Cl)c23)cc1 [Quinoxyfen] | 69.8% | – | 22.9 min | 63.7% | 76.4% | 78.1% | 53.1%
45 | CCCN(CCC)c1c([N+](=O)[O-])cc(S(N)(=O)=O)cc1[N+](=O)[O-] [Oryzalin] | 105% | 91.7% | 20.2 min | 97% | 102% | 94% | 109%
46 | CCS(=O)(=O)c1cccnc1S(=O)(=O)[N-]C(=O)Nc1nc(OC)cc(OC)n1 [Rimsulfuron] | 93.8% | 85% | 17.6 min | 127% | 124% | 95% | 95.2%
47 | CSc1nnc(C(C)(C)C)c(=O)n1N [Metribuzin] | 101% | 99.6% | 17.3 min | 91.1% | 94.1% | 89.8% | 95.2%
48 | COc1ccc(NC(=O)N(C)C)cc1Cl [Metoxuron] | 104% | 98.1% | 16 min | 104% | 92.8% | 90.2% | 129%
49 | CCNc1nc(Cl)nc(NC(C)C)n1 [Atrazin] | 99.3% | 97.7% | 18.5 min | 96.7% | 98.1% | 93.8% | 91.5%
50 | N#Cc1cc(Br)c([O-])c(Br)c1 [Bromoxynil] | 101% | 90.3% | 18.6 min | 92.1% | 82.5% | 86.9% | 108%
51 | CC(=NC#N)N(C)Cc1ccc(Cl)nc1 [Acetamiprid] | 102% | 90.8% | 14.3 min | 110% | 93.8% | 89% | –
